Experimental data: ChEMBL document CHEMBL1201862, “PubChem BioAssay data set” (2004)
“And” between values parts separate entries of the source, which are not always exact repeats. Identical values can stand only once.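 Method: 48-hour compound exposure of cells in 96-well plates, five concentrations, linear interpolation of endpoints. GI50 is the concentration that inhibits growth by half.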 The source made the active and inactive calls. Cut-off read from the data, not from the text of the source: active = GI50 up to about 1.1 µM and inactive = higher.

What was measured:
Assay in all cases: inhibition of tumour cell growth, NCI panel, 48 h
OVCAR-8 = test system: OVCAR-8
SF-268 = test system: SF-268
NCI-H226 = test system: NCI-H226
ACHN = test system: ACHN
K562 = test system: K562
SR = test system: SR
MDA-MB-231 = test system: MDA-MB-231
T47D = test system: T47D
NCI/ADR-RES = test system: NCI/ADR-RES
HT-29 = test system: HT-29
MOLT-4 = test system: MOLT-4
HL-60 = test system: HL-60
SNB-75 = test system: SNB-75
TK-10 = test system: TK-10
SW-620 = test system: SW-620
HOP-92 = test system: HOP-92
786-0 = test system: 786-0
NCI-H23 = test system: NCI-H23
UACC-62 = test system: UACC-62
Malme-3M = test system: Malme-3M
SK-OV-3 = test system: SK-OV-3
OVCAR-4 = test system: OVCAR-4
Hs-578T = test system: Hs-578T
HOP-62 = test system: HOP-62
SF-539 = test system: SF-539
LOX IMVI = test system: LOX IMVI
KM12 = test system: KM12
SK-MEL-28 = test system: SK-MEL-28
COLO 205 = test system: COLO 205
SN12C = test system: SN12C
SNB-19 = test system: SNB-19
HCT-116 = test system: HCT-116
A498 = test system: A498
SF-295 = test system: SF-295
HCT-15 = test system: HCT-15
UO-31 = test system: UO-31
HCC 2998 = test system: HCC 2998
RXF 393 = test system: RXF 393
RPMI-8226 = test system: RPMI-8226
A549 = test system: A549
MDA-MB-435 = test system: MDA-MB-435
CCRF-CEM = test system: CCRF-CEM
M14 = test system: M14
EKVX = test system: EKVX
OVCAR-5 = test system: OVCAR-5
IGROV-1 = test system: IGROV-1
NCI-H460 = test system: NCI-H460
U-251 = test system: U-251
SK-MEL-5 = test system: SK-MEL-5
DU-145 = test system: DU-145
MCF7 = test system: MCF7
UACC-257 = test system: UACC-257
PC-3 = test system: PC-3
MDA-N = test system: MDA-N

Measured: GI50

COc1ccc(-n2nnnc2C2(Nc3ccccc3)CCN(Cc3ccccc3)CC2)cc1
inactive: OVCAR-8 19 µM | SF-268 > 10 µM | NCI-H226 25.2 µM | ACHN 31.8 µM | K562 3.13 µM | SR 5.3 µM | MDA-MB-231 10.4 µM | T47D 14.7 µM | NCI/ADR-RES 7.35 µM | HT-29 6.82 µM | MOLT-4 5.04 µM | HL-60 2.56 µM | SNB-75 12.2 µM | TK-10 12.4 µM | SW-620 7.38 µM | HOP-92 3.45 µM | 786-0 13.6 µM | NCI-H23 21 µM | UACC-62 10.5 µM | Malme-3M 13.4 µM | SK-OV-3 13.6 µM | OVCAR-4 21.3 µM | Hs-578T 4.51 µM | HOP-62 16.5 µM | SF-539 16.4 µM | LOX IMVI 9.29 µM | KM12 3.77 µM | SK-MEL-28 13.5 µM | COLO 205 6.82 µM | SN12C 7.29 µM | SNB-19 12.3 µM | HCT-116 7.8 µM | A498 12.8 µM | SF-295 13.6 µM | UO-31 7.48 µM | HCC 2998 3.93 µM | RXF 393 17.5 µM | RPMI-8226 9.77 µM | A549 14.2 µM | MDA-MB-435 3.29 µM | CCRF-CEM 18.7 µM | M14 14.2 µM | EKVX 21.6 µM | OVCAR-5 15.7 µM | IGROV-1 11.9 µM | NCI-H460 11.2 µM | U-251 16.4 µM | SK-MEL-5 10.2 µM | DU-145 24.9 µM | MCF7 7.73 µM | UACC-257 13.8 µM
7.21 µM: HCT-15

CC(C)(C)OC(=O)C1C(=O)NC(=O)CC1C(OCc1ccccc1)C(OCc1ccccc1)C(COCc1ccccc1)OCc1ccccc1 (configuration not stated)
inactive: OVCAR-8 > 100 µM and 52.5 µM | SF-268 74 µM and 71.4 µM | NCI-H226 > 100 µM and 61.9 µM | ACHN > 75 µM | K562 65.8 µM and 88.3 µM | T47D 2.14 µM | NCI/ADR-RES > 100 µM and 58.6 µM | PC-3 > 100 µM and 69.2 µM | HT-29 16.6 µM | TK-10 > 100 µM | SW-620 > 100 µM | 786-0 > 100 µM | NCI-H23 > 100 µM | OVCAR-4 50.6 µM | SF-539 > 100 µM | SK-MEL-28 > 100 µM | COLO 205 58.2 µM | SN12C > 100 µM | SNB-19 > 100 µM | A498 > 75 µM | SF-295 50.6 µM | HCC 2998 > 100 µM | MDA-N > 100 µM | M14 > 100 µM and 71.8 µM | EKVX > 100 µM | OVCAR-5 > 100 µM | IGROV-1 > 100 µM | DU-145 > 75 µM | UACC-257 > 100 µM and 58.7 µM
> 100 µM: HCT-15

CC(NC1=NCCO1)c1cccs1 (configuration not stated)
inactive: OVCAR-8 41 µM | SF-268 30.4 µM | NCI-H226 46.8 µM | ACHN 74.6 µM | K562 22.1 µM | SR 26.4 µM | MDA-MB-231 76.7 µM | T47D 36.4 µM | NCI/ADR-RES > 100 µM | HT-29 19.1 µM | MOLT-4 22.1 µM | HL-60 17.9 µM | SNB-75 37.7 µM | TK-10 > 100 µM | SW-620 36.5 µM | HOP-92 12.6 µM | 786-0 17.1 µM | NCI-H23 50.2 µM | UACC-62 16.5 µM | Malme-3M 21.4 µM | SK-OV-3 57.9 µM | OVCAR-4 30.8 µM | Hs-578T 17.8 µM | HOP-62 22.2 µM | KM12 15.7 µM | SK-MEL-28 23.1 µM | COLO 205 19.5 µM | SN12C 60.7 µM | SNB-19 20.5 µM | HCT-116 20 µM | A498 74 µM | SF-295 16.5 µM | UO-31 24.9 µM | HCC 2998 17.7 µM | RXF 393 > 10 µM | RPMI-8226 23.7 µM | A549 52.8 µM | MDA-MB-435 19.7 µM | CCRF-CEM 20 µM | M14 18.2 µM | EKVX 88.1 µM | OVCAR-5 69.5 µM | IGROV-1 23.1 µM | NCI-H460 28.8 µM | U-251 18.1 µM | SK-MEL-5 31.8 µM | DU-145 87.9 µM | MCF7 22.7 µM | UACC-257 18.1 µM
33.7 µM: HCT-15
